Columns and labels:
Long Evans rats [1] = assay: Cocaine-induced locomotor activity; format: in vivo, rat; settings: 3.75, 7.5 or 15 mg/kg 10 minutes before 10 mg/kg cocaine; p<0.05
Experimental: (§1) These studies were performed using Long Evans rats using standard protocols. Locomotor activity chambers measuring 43×43×30 cm (l×w×h) were used for the locomotor activity experiments. Each chamber was equipped with eight photo-emitters positioned along the length of the chamber 6 cm above the floor, each paired directly opposite a photocell. Locomotor activity counts were registered when adjacent beams were broken consecutively. Before receiving any drug, the animals (n=96) were placed in locomotor activity chambers for habituation, for 2 hours per day for 3 consecutive days. Based on the locomotor activity score obtained during the third habituation session, animals were assigned into one of […] treatment groups. […] For the 113 alone experiments, each of the four groups received one of 4 doses of 113 (0, 3.75, 7.5 or 15 mg/kg) 10 minutes prior to placement in the activity chambers. For the 113 cocaine interaction experiments, each of 4 groups were injected with one of the 4 doses of the compound (0, 3.75, 7.5 or 15 mg/kg) 10 minutes before receiving 10 mg/kg of cocaine as the second injection. […] The locomotor counts in the 113 alone and 113/cocaine experiments were analyzed using two separate mixed-design ANOVAs with 113 dose (between-groups) and 5-min bins (repeated measures) as factors. […]

[2] = molecular target: human D2 dopamine receptors (Homo sapiens (Human), UniProt P14416); assay: Whole Cell Adenylyl Cyclase Assay, D2; format: cell-based; settings: inhibition of forskolin (100 μM) stimulated cAMP, normalized to quinpirole; compound conc ≥10× Ki (per compound); mean ± S.E.M.
Sequence of human D2 dopamine receptors (P14416 whole entry): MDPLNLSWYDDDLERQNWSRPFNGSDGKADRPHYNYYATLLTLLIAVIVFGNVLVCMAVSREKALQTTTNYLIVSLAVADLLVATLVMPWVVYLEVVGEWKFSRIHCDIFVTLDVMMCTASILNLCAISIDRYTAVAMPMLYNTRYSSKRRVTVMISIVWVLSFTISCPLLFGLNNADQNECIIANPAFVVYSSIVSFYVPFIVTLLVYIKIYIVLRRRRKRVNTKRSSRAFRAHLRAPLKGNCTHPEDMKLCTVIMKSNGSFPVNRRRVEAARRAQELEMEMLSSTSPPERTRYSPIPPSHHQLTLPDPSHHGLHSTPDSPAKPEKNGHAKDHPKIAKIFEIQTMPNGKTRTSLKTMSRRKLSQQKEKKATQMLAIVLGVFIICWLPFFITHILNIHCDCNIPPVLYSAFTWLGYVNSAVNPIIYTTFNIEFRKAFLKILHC

D3R = D3R (Homo sapiens (Human), UniProt P35462); assay: β-Arrestin Recruitment Assay, U2OS DRD3; format: cell-based; settings: antagonist vs EC80 8 nM PD128907, U2OS DRD3 cells; read-out: D3 IC50
Sequence of D3R (P35462 whole entry): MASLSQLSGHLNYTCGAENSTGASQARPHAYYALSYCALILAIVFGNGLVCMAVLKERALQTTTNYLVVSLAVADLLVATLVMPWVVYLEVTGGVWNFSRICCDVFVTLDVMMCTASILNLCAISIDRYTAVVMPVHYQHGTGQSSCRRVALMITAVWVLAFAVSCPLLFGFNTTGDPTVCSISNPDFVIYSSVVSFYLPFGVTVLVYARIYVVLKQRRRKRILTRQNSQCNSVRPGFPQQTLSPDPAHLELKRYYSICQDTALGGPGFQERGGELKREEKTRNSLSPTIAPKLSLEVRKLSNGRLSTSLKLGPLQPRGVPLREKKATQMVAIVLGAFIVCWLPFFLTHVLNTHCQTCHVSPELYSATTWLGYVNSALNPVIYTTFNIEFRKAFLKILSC
Experimental: Antagonist potency of the compounds against agonist induced recruitment of β-arrestin by D3R and D2LR was measured using DiscoverRx PathHunter eXpress kits. […] After incubation at 37° C. for 90 min, the DiscoveRx detection reagent was added, the plates were incubated at room temperature for 60 min and the luminescence was measured on a Synergy 4 plate reader (BioTek). The data were plotted and the agonist EC80 values were calculated using GraphPad Prism software. For antagonist activity, the cells were plated as described above and treated with multiple concentrations (starting from 500 nM, half log dilution, 10 dose points) of the test compounds in Plating Reagent with 0.1% DMSO.

human D2 receptors = human D2 receptors (Homo sapiens (Human), UniProt P14416); assay: D2 Mitogenesis Functional Assay (3H-thymidine uptake, CHOp-D2 cells); format: cell-based; settings: inhibition of quinpirole (30 nM final) stimulation of mitogenesis; read-out: D2 Antagonist IC50
Sequence of human D2 receptors (P14416 whole entry): as the sequence (P14416 whole entry) above

Long Evans rats [3] = assay: Spontaneous locomotor activity; format: in vivo, rat; settings: 10 minutes prior to placement in chambers
Experimental: as §1

CC(C)(C)c1nc(N2CCN(CCCCNC(=O)c3cn4ccccc4n3)CC2)cc(C(F)(F)F)n1 [Compound 113, N-(4-(4-(2-(tert-Butyl)-6-(trifluoromethyl)pyrimidin-4-yl)piperazin-1-yl)butyl)imidazo[1,2-a]pyridine-2-carboxamide]
cocaine-induced locomotor activity (Long Evans rats [1]): significantly reduce cocaine-induced locomotor activity in a dose-related fashion
D2 Cyclase % Inhibition Normalized [2]: −1.9 ± 13.3%
IC50 (D3R): 0.56 ± 0.12 nM
IC50 (human D2 receptors): 2300 ± 1100 nM
spontaneous locomotor activity (Long Evans rats [3]; 3.75 mg dose): had no effect on spontaneous locomotor activity
spontaneous locomotor activity (Long Evans rats [3]; 7.5 and 15 mg doses): appeared to reduce locomotor activity in the first 5 minutes of testing but did not affect activity after that
